Results taken from patent publication US11447486B2, “2-amino-benzimidazole derivatives and their use as 5-lipoxygenase and/or prostaglandin E synthase inhibitors” (INSTITUT PASTEUR KOREA, priority 2014, dated 2022).

Tests used:
human 5-LOX = target: T1, human 5-LOX (Homo sapiens, UniProt P09917); test: 5-LOX enzyme activity, fluorescence method (5-HPETE, H2DCFDA); assay type: biochemical; settings: read-out: 5-LO (IC50)
T1 construct: purchased Cayman 60402; host or cells: insect cells (lysate)
T1 sequence (P09917 1-674): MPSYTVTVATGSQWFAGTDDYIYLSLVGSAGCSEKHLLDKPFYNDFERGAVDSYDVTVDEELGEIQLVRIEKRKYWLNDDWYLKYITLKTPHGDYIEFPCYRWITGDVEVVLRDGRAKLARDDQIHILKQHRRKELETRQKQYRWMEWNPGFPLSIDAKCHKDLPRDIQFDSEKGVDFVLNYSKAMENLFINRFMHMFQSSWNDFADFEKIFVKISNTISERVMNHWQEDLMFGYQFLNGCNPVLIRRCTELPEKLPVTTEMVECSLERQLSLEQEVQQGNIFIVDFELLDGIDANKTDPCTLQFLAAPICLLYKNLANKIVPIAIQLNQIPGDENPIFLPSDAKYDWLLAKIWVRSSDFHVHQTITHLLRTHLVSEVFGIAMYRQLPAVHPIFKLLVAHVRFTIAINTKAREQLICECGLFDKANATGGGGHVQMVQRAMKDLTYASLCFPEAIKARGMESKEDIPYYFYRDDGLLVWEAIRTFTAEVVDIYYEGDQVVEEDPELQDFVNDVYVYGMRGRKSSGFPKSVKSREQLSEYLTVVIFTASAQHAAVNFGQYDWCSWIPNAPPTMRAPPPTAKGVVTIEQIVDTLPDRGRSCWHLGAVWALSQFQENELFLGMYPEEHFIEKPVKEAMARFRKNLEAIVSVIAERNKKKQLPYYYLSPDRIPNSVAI
Summary of the method: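 Compound (0.5 nM to 10 uM) pre-incubated 5 min with enzyme; reaction started with ATP (100 uM final) and arachidonic acid (3 uM final). All steps at room temperature, fluorescence read-out.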

[1] = tested on: Rat basophilic leukemia (RBL) cells; test: LTB4 secretion assay in RBL (rat basophilic leukemia cells); assay type: cell-based; settings: Rattus norvegicus, RBL
Summary of the method: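 Cells seeded 2×10^4/well the day before, then pre-incubated 15 min at 37 °C in EMEM/0.5% FBS with compound (5 nM to 100 uM). Stimulation with 2.5 uM arachidonic acid plus 5 uM A23187 (final) for 10 min at 37 °C; LTB4 in supernatant quantified by EIA.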

Rat whole blood (RWB) = test: LTB4 secretion assay in RWB (rat whole blood); assay type: cell-based; settings: Rattus norvegicus
Summary of the method: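 Heparinized blood from male Sprague Dawley rats (6-9 weeks) diluted 1:1 in RPMI, pre-incubated 15 min at 37 °C with compound (2.5 nM to 50 uM). Stimulated with 10 uM calcium ionophore A23187 for 10 min at 37 °C, stopped with ice-cold PBS; LTB4 in supernatant quantified by EIA.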

Structure (SMILES)	IC50 (human 5-LOX) [nM]	EC50 [1] [µM]	EC50 (Rat whole blood (RWB)) [µM]
Cn1c(NCc2c(F)cc(Oc3ncc(Cl)cn3)cc2F)nc2ccc(N)cc21 [Compound 430]	< 1000	< 10	< 10
Cn1c(NCc2c(F)cc(Oc3ncc(Cl)cn3)cc2F)nc2ccc(NC3COC3)cc21 [Compound 431]	< 1000	< 10	< 10
Cn1c(NCc2cc(Cl)c(Oc3ncc(Cl)cn3)cc2Cl)nc2ccc(NC3COC3)cc21 [Compound 433]	< 1000	10 to 20	< 10
Cn1c(NCc2ccc(Oc3ccc(Cl)cn3)cc2)nc2ccc(Nc3ccccn3)cc21 [Compound 448]	1000 to 10000	< 10	< 10
Cn1c(NCc2ccc(Oc3ncc(Cl)cn3)cc2)nc2ccc(Nc3cc[nH]n3)cc21 [Compound 450]	< 1000	< 10	< 10
COc1nc(Oc2ccc(CNc3nc4ccc(NC5COC5)cc4n3C)cc2)ncc1Cl [Compound 459]	< 1000	10 to 20	10 to 20
Cn1c(NCc2ccc(Nc3ncc(Cl)cn3)cc2)nc2ccc(NC3COC3)cc21 [Compound 461]	< 1000	< 10	< 10
Cc1cccnc1Nc1ccc2nc(NCc3ccc(Oc4ncc(Cl)cn4)cc3)n(C)c2c1 [Compound 464]	1000 to 10000	< 10	< 10
Cc1cc(Nc2ccc3nc(NCc4ccc(Oc5ccc(Cl)cn5)cc4)n(C)c3c2)n[nH]1 [Compound 466]	< 1000	< 10	< 10
Cc1cc(Nc2ccc3nc(NCc4ccc(Oc5ncc(Cl)cn5)cc4)[nH]c3c2)n[nH]1 [Compound 470]	< 1000	< 10	< 10
Cc1cc(Nc2ccc3nc(NCc4ccc(Oc5ncc(OC(F)(F)F)cn5)cc4)n(C)c3c2)n[nH]1 [Compound 482]	< 1000	< 10	< 10
Cc1cc(Nc2ccc3nc(NCc4ccc(Oc5ncc(Cl)cn5)cc4)n(CCC(F)(F)F)c3c2)n[nH]1 [Compound 491]	< 1000	< 10	< 10
Cc1cnc(Nc2ccc3nc(NCc4ccc(Oc5ncc(Cl)cn5)cc4)n(C)c3c2)s1 [Compound 492]	< 1000	< 10	< 10
Cn1c(NCc2ccc(Oc3ncc(Cl)cn3)cc2)nc2ccc(Nc3nc(C(F)(F)F)co3)cc21 [Compound 493]	1000 to 10000	< 10	< 10
Cn1c(NCc2ccc(Oc3ncc(Cl)cn3)cc2)nc2ccc(Nc3nc(C(F)(F)F)cs3)cc21 [Compound 494]	1000 to 10000	< 10	< 10
Cc1cc(Nc2ccc3nc(NCc4ccc(Oc5ccc(C(F)(F)F)cn5)cc4)n(C)c3c2)n[nH]1 [Compound 495]	< 1000	< 10	< 10
Cc1cc(Nc2cnc3nc(NCc4ccc(Oc5ncc(Cl)cn5)cc4)n(C)c3c2)n[nH]1 [Compound 497]	1000 to 10000	> 20	> 20
Cc1nnc(Nc2ccc3nc(NCc4ccc(Oc5ncc(Cl)cn5)cc4)n(C)c3c2)o1 [Compound 498]	> 10000	> 20	< 10
Cc1csc(Nc2ccc3nc(NCc4ccc(Oc5ncc(Cl)cn5)cc4)n(C)c3c2)n1 [Compound 501]	< 1000	< 10	< 10
CCn1c(NCc2ccc(Oc3ncc(Cl)cn3)cc2F)nc2ccc(Nc3cc(C(F)(F)F)n(C)n3)cc21 [Compound 506]	> 10000	< 10	< 10
CCn1c(NCc2ccc(Oc3ncc(C(F)(F)F)cn3)cc2)nc2ccc(Nc3cc(C(C)(C)C)[nH]n3)cc21 [Compound 507]	< 1000	< 10	10 to 20
CCn1c(NCc2ccc(Oc3ncc(C(F)(F)F)cn3)cc2)nc2ccc(Nc3n[nH]c(C)c3Cl)cc21 [Compound 508]	1000 to 10000	< 10	< 10

Next, values leading:

IC50 (human 5-LOX) [nM]	EC50 [1] [µM]	EC50 (Rat whole blood (RWB)) [µM]	Structure (SMILES)
< 1000	> 20	> 20	Cc1cc(CNc2nc3ccc(NC4COC4)cc3n2C)cc(C)c1Oc1ncc(Cl)cn1 [Compound 418]
1000 to 10000	< 10	< 10	Cn1c(NCc2ccc(Oc3ncc(Cl)cn3)cc2)nc2ccc(Nc3ccccn3)cc21 [Compound 447]
< 1000	< 10	< 10	Cn1c(NCc2ccc(Oc3ccc(Cl)cn3)cc2)nc2ccc(Nc3cc[nH]n3)cc21 [Compound 449]
< 1000	< 10	< 10	Cc1cc(Nc2ccc3nc(NCc4ccc(Oc5ncc(Cl)cn5)cc4)n(C)c3c2)nn1C [Compound 465]
< 1000	< 10	< 10	Cn1nc(Nc2ccc3nc(NCc4ccc(Oc5ncc(Cl)cn5)cc4)n(C)c3c2)cc1C(F)(F)F [Compound 468]
< 1000	< 10	< 10	Cn1c(NCc2ccc(Oc3ncc(Cl)cn3)cc2)nc2ccc(Nc3cc(C(C)(C)C)[nH]n3)cc21 [Compound 469]
< 1000	< 10	< 10	Cc1cc(Nc2ccc3nc(NCc4ccc(N(C)c5ncc(Cl)cn5)cc4)n(C)c3c2)n[nH]1 [Compound 471]
< 1000	< 10	< 10	Cc1cc(Nc2ccc3nc(NCc4ccc(Oc5ncc(Cl)cn5)c(Cl)c4)n(C)c3c2)n[nH]1 [Compound 473]
< 1000	< 10	< 10	Cc1[nH]nc(Nc2ccc3nc(NCc4ccc(Oc5ncc(Cl)cn5)cc4)n(C)c3c2)c1C [Compound 474]
< 1000	< 10	< 10	Cn1c(NCc2ccc(Oc3ncc(Cl)cn3)cc2)nc2ccc(Nc3cc(C(F)(F)F)[nH]n3)cc21 [Compound 475]
< 1000	< 10	< 10	CCn1c(NCc2ccc(Oc3ncc(Cl)cn3)cc2)nc2ccc(Nc3cc(C)[nH]n3)cc21 [Compound 476]
< 1000	< 10	< 10	CCC(Nc1nc2ccc(Nc3cc(C)[nH]n3)cc2n1C)c1ccc(Oc2ncc(Cl)cn2)cc1 (stereo not drawn) [Compound 477]
< 1000	< 10	< 10	Cc1cc(Nc2ccc3nc(NCc4ccc(Oc5ncc(C(F)(F)F)cn5)cc4)n(C)c3c2)n[nH]1 [Compound 479]
< 1000	< 10	< 10	Cc1[nH]nc(Nc2ccc3nc(NCc4ccc(Oc5ncc(Cl)cn5)cc4)n(C)c3c2)c1Cl [Compound 481]
< 1000	< 10	< 10	Cc1cc(Nc2ccc3nc(NCc4ccc(Nc5ncc(Cl)cn5)cc4)n(C)c3c2)n[nH]1 [Compound 486]
< 1000	< 10	< 10	Cn1ccc(Nc2ccc3nc(NCc4ccc(Oc5ncc(Cl)cn5)cc4)n(C)c3c2F)n1 [Compound 487]
< 1000	< 10	< 10	Cc1cc(Nc2ccc3nc(NCc4ccc(Oc5nccc(Cl)n5)cc4)n(C)c3c2)n[nH]1 [Compound 489]
< 1000	< 10	< 10	Cc1cc(Nc2ccc3nc(NCc4ccc(Oc5ccc(OC(F)(F)F)cn5)cc4)n(C)c3c2)n[nH]1 [Compound 496]
< 1000	< 10	< 10	Cc1cc(Nc2cc(F)c3nc(NCc4ccc(Oc5ncc(Cl)cn5)cc4)n(C)c3c2)n[nH]1 [Compound 499]
1000 to 10000	< 10	< 10	Cn1nc(Nc2ccc3nc(NCc4ccc(Oc5ccc(Cl)cn5)cc4)n(C)c3c2)cc1C(F)(F)F [Compound 502]
< 1000	< 10	< 10	Cn1nc(Nc2ccc3nc(NCc4ccc(Oc5ncc(Cl)cn5)cc4F)n(C)c3c2)cc1C(F)(F)F [Compound 503]
1000 to 10000	< 10	< 10	CCn1c(NCc2ccc(Oc3ncc(Cl)cn3)cc2)nc2ccc(Nc3cc(C(F)(F)F)n(C)n3)cc21 [Compound 504]
< 1000	< 10	< 10	CCC(Nc1nc2ccc(Nc3cc(C(F)(F)F)n(C)n3)cc2n1C)c1ccc(Oc2ncc(Cl)cn2)cc1 (stereo not drawn) [Compound 505]
